Data from patent publication US8389236B2, “Assay” (Otago Innovation Limited, priority 2005, dated 2013).
Several values for one entry are separate records, joined by “and”; a condition that tells them apart may be missing. Equal entries are not always repeated.

Legend:
[1] = test system: HIV-1 gag/pol −1 frameshift signal sequence (HIV-1 frameshift construct); experiment: Dual fluorescent reporter (EGFP/DsRed) recoding assay in transiently transfected COS-7 cells, with Null 0 control construct; assay type: cell-based; conditions: for Minus 1 Frameshift Construct EGFP signal, Average / Null 0 Frameshift Construct EGFP signal, Average: 485 excitation 520-P emission; for Minus 1 Frameshift Construct DsRed signal, Average / Null 0 Frameshift Construct DsRed signal, Average: 525 excitation 600LP emission; for Frameshift: DsRed 525 excitation/600LP emission
Method: Mammalian COS-7 cells were grown, harvested, trypsinised, washed and diluted to 1×10^5 cells/ml all under standard conditions.
The diluted cells were then split into two equal portions. One portion was transiently transfected with the recoding construct, and other with the Null 0 frame control construct. Transient transfection was performed using 2 μL of FuGENE® 6 transfection reagent (Roche) and 500 ng of DNA for every mL of cells, in accordance with the manufacturing instructions.
Transfected cells were seeded in 24 well plates under standard conditions. Cycloheximide was added in triplicate at 50 nM and the plates were then incubated for 48 hours at 37° C.
The cells were washed 3 times with Phosphate Buffered Saline (PBS) to remove any traces of culture medium. 100 ul of Passive Lysis buffer (Promega) was added. The cells were frozen. The frozen cells were then thawed and transferred to a 96 well plate, and fluorescence intensity was read in the BMG PolarStar plate reader.
Plate reader settings were as follows:
Filters 485 excitation, 520-P emission
Filters 544 excitation, 590 emission
[[DsRed signal: HIV-1 frameshift construct]/[EGFP signal: HIV-1 frameshift construct]]/[[DsRed signal: Null 0 frameshift construct]/[EGFP signal: Null 0 frameshift construct]]
The diluted cells were then split into two equal portions. One portion was transfected, as described in Example 3, with the recoding construct, and other with the Null 0 frame control construct.
Cells were then seeded in 24 well plates under standard conditions. Anisomycin was added in triplicate at 50 nM and the plates were then incubated for 48 hours at 37° C.
The cells were prepared as described in examples 3 and 4.
DsRed signal at 525 excitation, 600LP emission
EGFP signal at 485 excitation, 520-P emission
Frameshift figures, shown in Table 5, were calculated using the formula shown in Example 3 using data from Tables 1, 2, 3 and 4.
Transfected cells were prepared as described in Example 5, and treated with 0 nM (no drug) 100 nM, 200 nM, 300 nM, 400 nM and 500 nM concentrations of anisomycin.
Incubation, plate reader setting and readings were as described in Example 5.
For the anisomycin titrations, the frameshift figures, shown in Table 10, were calculated using the formula shown in Example 3 using data from Tables 6, 7, 8 and 9.

[2] = test system: HIV-1 gag/pol −1 frameshift signal sequence (HIV-1 frameshift construct); experiment: Stably transfected dual fluorescent reporter recoding assay in Flp-In CV1 cells (−1 frame construct); assay type: cell-based; conditions: for DsRed/EGFP ratio / Percentage decrease in ratio / Minus 1 Frameshift Construct EGFP signal, Average / Minus 1 Frameshift Construct DsRed signal, Average: 120 hours; for DsRed/EGFP ratio / Percentage decrease in ratio: stable Flp-In CV1 cells; for DsRed/EGFP ratio: not normalised to Null 0, expressed as a percentage; for Percentage decrease in ratio: vs no drug; for Minus 1 Frameshift Construct EGFP signal, Average: 485 excitation 515 emission; for Minus 1 Frameshift Construct DsRed signal, Average: 535 excitation 590 emission
Method: The translational recoding construct described above was excised via Hind III and Not I restrictions sites and ligated into a Flp-In™ pcDNA5/FRT expression vector (Invitrogen Life Technologies) before being stably transformed into Flp-In™ CV1 cells (Invitrogen Life Technologies) according to the manufacturer's instructions.
Flp-In CV1 cells (CV1 cells), as described in Example 2, transfected with the −1 frame construct, and untransfected CV1 cells were grown, harvested, trypsinised, washed and diluted to 1×10^5 cells/ml all under standard conditions.
Cells were then seeded in 96 well plates under standard conditions. The plates were then incubated for 120 hours at 37° C.
The cells were washed 3 times with Phosphate Buffered Saline (PBS) to remove any traces of culture medium. 100 ul of Passive Lysis buffer (Promega) was added. The cells were frozen. The frozen cells were then thawed and fluorescence intensity was read in the Tecan Genios Pro plate reader.
Plate reader setting were as follows:
Filters 485 excitation, 515 emission
Filters 535 excitation, 590 emission
As a Null 0 frameshift construct was not used in this experiment ratios of the DsRed to EGFP signal were calculated to take into account the decrease in the EGFP signal with increasing drug concentrations.
The calculation was similar to example 3, with the counts averaged, the control cell counts removed before working out the ratio of the DsRed signal to the EGFP signal. Normalisation using a Null 0 frame construct could not be performed, with the results below being expressed as a percentage. The calculation was a follows: [[DsRed signal: HIV-1 frameshift construct]/[EGFP signal: HIV-1 frameshift construct]]

[3] = 50 nM, 48 hours, 485 excitation, 520-P emission
[4] = 50 nM, 48 hours, 544 excitation, 590 emission
[5] = 100 nM, COS-7, 525/600LP filters, vs no drugs

## C[C@@H]1C[C@@H]([C@H](O)CC2CC(=O)NC(=O)C2)C(=O)[C@@H](C)C1 [Cycloheximide]
[1]; 50 nM, 48 hours, COS-7, 544/590 filters
  decrease in frameshift from the original (no drug) value: 5%
[1]; 50 nM, 48 hours, COS-7, vs no drug control, 544/590 filters
  absolute change frameshift efficiency: 0.29%
[1]; [3]
  EGFP signal, HIV-1 frameshift construct, average: 24268 RFU
  EGFP signal, HIV-1 frameshift construct, average minus control: 23858 RFU
  EGFP signal, Null 0 frameshift construct, average: 42054 RFU
  EGFP signal, Null 0 frameshift construct, average minus control: 41644 RFU
[1]; [4]
  DsRed signal, HIV-1 frameshift construct, average: 1447 RFU
  DsRed signal, HIV-1 frameshift construct, average minus control: 1342 RFU
  DsRed signal, Null 0 frameshift construct, average: 43596 RFU
  DsRed signal, Null 0 frameshift construct, average minus control: 43491 RFU
[1]; 100 nM
  Minus 1 Frameshift Construct EGFP signal, Average: 23068
  Null 0 Frameshift Construct EGFP signal, Average: 41181
  Minus 1 Frameshift Construct DsRed signal, Average: 2384
  Null 0 Frameshift Construct DsRed signal, Average: 39126
[1]; [5]
  Percentage decrease in frameshift: 2.7% and 2.71%
  absolute change in frameshift efficiency: 0.23%
[1]; 100 nM, COS-7
  Frameshift: 8.25%
[1]; 200 nM
  Minus 1 Frameshift Construct EGFP signal, Average: 25793
  Null 0 Frameshift Construct EGFP signal, Average: 42120
  Minus 1 Frameshift Construct DsRed signal, Average: 2567
  Null 0 Frameshift Construct DsRed signal, Average: 40152
[1]; 200 nM, COS-7, 525/600LP filters, vs no drugs
  Percentage decrease in frameshift: 4.51%
[1]; 200 nM, COS-7
  Frameshift: 8.10%
[1]; 300 nM
  Minus 1 Frameshift Construct EGFP signal, Average: 27197
  Null 0 Frameshift Construct EGFP signal, Average: 46595
  Minus 1 Frameshift Construct DsRed signal, Average: 2674
  Null 0 Frameshift Construct DsRed signal, Average: 45168
[1]; 300 nM, COS-7, 525/600LP filters, vs no drugs
  Percentage decrease in frameshift: 6.17%
[1]; 300 nM, COS-7
  Frameshift: 7.96%
[1]; 400 nM
  Minus 1 Frameshift Construct EGFP signal, Average: 27613
  Null 0 Frameshift Construct EGFP signal, Average: 42950
  Minus 1 Frameshift Construct DsRed signal, Average: 2704
  Null 0 Frameshift Construct DsRed signal, Average: 41311
[1]; 400 nM, COS-7, 525/600LP filters, vs no drugs
  Percentage decrease in frameshift: 5.52%
[1]; 400 nM, COS-7
  Frameshift: 8.01%
[1]; 500 nM
  Minus 1 Frameshift Construct EGFP signal, Average: 28615
  Null 0 Frameshift Construct EGFP signal, Average: 42742
  Minus 1 Frameshift Construct DsRed signal, Average: 2790
  Null 0 Frameshift Construct DsRed signal, Average: 41338
[1]; 500 nM, COS-7, 525/600LP filters, vs no drugs
  Percentage decrease in frameshift: 5.66%
[1]; 500 nM, COS-7
  Frameshift: 8.00%
[1]; result in words
  effect on −1 frameshifting: antagonists to −1 frameshifting
[2]; 50 nM
  DsRed/EGFP ratio: 7.38%
  Percentage decrease in ratio: 4.11%
  Minus 1 Frameshift Construct EGFP signal, Average: 11313
  Minus 1 Frameshift Construct DsRed signal, Average: 1220
[2]; 100 nM
  DsRed/EGFP ratio: 7.28%
  Percentage decrease in ratio: 5.39%
  Minus 1 Frameshift Construct EGFP signal, Average: 11262
  Minus 1 Frameshift Construct DsRed signal, Average: 1210
[2]; 500 nM
  DsRed/EGFP ratio: 5.47%
  Percentage decrease in ratio: 28.91%
  Minus 1 Frameshift Construct EGFP signal, Average: 8638
  Minus 1 Frameshift Construct DsRed signal, Average: 948
[2]; 1000 nM
  DsRed/EGFP ratio: 3.25%
  Percentage decrease in ratio: 57.82%
  Minus 1 Frameshift Construct EGFP signal, Average: 7308
  Minus 1 Frameshift Construct DsRed signal, Average: 818
[2]; 2000 nM
  DsRed/EGFP ratio: −2.94%
  Percentage decrease in ratio: 138.27%
  Minus 1 Frameshift Construct EGFP signal, Average: 6285
  Minus 1 Frameshift Construct DsRed signal, Average: 688
[2]; range between 50 nM and 2000 nM, stable cells, result in words
  % decrease in ratio over concentration range: dose responsive effect
